In patent US6756382B2, “Amide substituted imidazoquinolines” (3M Innovative Properties Company, priority 1999, dated 2004):

Experiments:
interferon (α) = test: Cytokine induction in human cells: interferon secreted by PBMCs, ELISA; type: cell-based; conditions: PBMC, incubated 18 to 24 hours, interferon determined by ELISA, read-out: Lowest Effective Concentration (μM) Interferon
Description: (§1) An in vitro human blood cell system was used to assess cytokine induction by compounds of the invention. Activity is based on the measurement of interferon and tumor necrosis factor (α) (IFN and TNF, respectively) secreted into culture media as described by Testerman et. al. In “Cytokine Induction by the Immunomodulators Imiquimod and S-27609”, Journal of Leukocyte Biology, 58, 365-372 (September, 1995).
(§2) Whole blood is collected by venipuncture into EDTA vacutainer tubes from healthy human donors. Peripheral blood mononuclear cells (PBMCs) are separated from whole blood by density gradient centrifugation using Histopaque®-1077 (Sigma Chemicals, St. Louis, Mo.). The PBMCs are suspended at 3-4×10^6 cells/mL in RPMI 1640 medium containing 10% fetal bovine serum, 2 mM L-glutamine and 1% penicillin/streptomycin solution (RPMI complete). The PBMC suspension is added to 48 well flat bottom sterile tissue culture plates (Costar, Cambridge, Mass. or Becton Dickinson Labware, Lincoln Park, N.J.) containing an equal volume of RPMI complete media containing test compound.
(§3) The compounds are solubilized in dimethyl sulfoxide (DMSO). The DMSO concentration should not exceed a final concentration of 1% for addition to the culture wells.
(§4) The solution of test compound is added at 60 μM to the first well containing RPMI complete and serial (three fold or ten fold) dilutions are made. The PBMC suspension is then added to the wells in an equal volume, bringing the test compound concentrations to the desired range. The final concentration of PBMC suspension is 1.5-2×10^6 cells/mL. The plates are covered with sterile plastic lids, mixed gently and then incubated for 18 to 24 hours at 37° C. in a 5% carbon dioxide atmosphere.
(§5) Following incubation the plates are centrifuged for 5-10 minutes at 1000 rpm (˜200×g) at 4° C. The cell culture supernatant is removed with a sterile polypropylene pipet and transferred to sterile polypropylene tubes. Samples are maintained at −30 to −70° C. until analysis. The samples are analyzed for interferon (α) by either ELISA or bioassay and for tumor necrosis factor (α) by ELISA.
Interferon (α) concentration is determined by ELISA using a Human Multi-Species kit from PBL Biomedical Laboratories, New Brunswick, N.J.
(§6) The table below lists the lowest concentration found to induce interferon and the lowest concentration found to induce tumor necrosis factor for each compound. […] Unless otherwise indicated, the interferon biosynthesis was determined by ELISA.

[1] = test system: tumor necrosis factor (α); test: Cytokine induction in human cells: tumor necrosis factor (α) secreted by PBMCs, ELISA; type: cell-based; conditions: PBMC, incubated 18 to 24 hours, TNF determined by ELISA, read-out: Lowest Effective Concentration (μM) Tumor Necrosis Factor
Description: as §1, §2, §3, §4, §5
Tumor necrosis factor (α) (TNF)concentration is determined using ELISA kits available from Genzyme, Cambridge, Mass.; R&D Systems, Minneapolis, Minn.; or Pharmingen, San Diego, Calif.
as §6

SMILES	minimal effective concentration (interferon (α)) [µM]	minimal effective concentration [1] [µM]
COCCc1nc2c(N)nc3ccccc3c2n1CCCCNC(=O)c1ccccc1C [Example 151]	0.0001	> 10
Nc1nc2ccccc2c2c1ncn2CCCCNC(=O)c1cccc2ccccc12 [Example 38, N^1-[4-(4-Amino-1H-imidazo[4,5-c]quinolin-1-yl)butyl]-1-naphthamide]	0.12	3.33
Nc1nc2ccccc2c2c1ncn2CCCCNC(=O)C1(c2ccc(Cl)cc2)CCCC1 [Example 91]	3.33	> 30
CC(=O)N(CCCCn1cnc2c(N)nc3ccccc3c21)Cc1ccc(C)cc1C [Example 132]	1.11	3.33
COc1cc(CN(CCCCn2cnc3c(N)nc4ccccc4c32)C(C)=O)cc(OC)c1OC [Example 146]	3.33	> 30
COc1ccc(CC(=O)NCCCCn2cnc3c(N)nc4ccccc4c32)cc1 [Example 98]	1.11	10
CN(CCc1ccccn1)Cc1ccc(C(=O)NCCCCn2cnc3c(N)nc4ccccc4c32)cc1 [Example 107]	0.12	10
CC(=O)N(CCCCn1cnc2c(N)nc3ccccc3c21)Cc1ccoc1 [Example 135]	0.12	> 30
CC(=O)N(CCCCn1cnc2c(N)nc3ccccc3c21)CCCc1ccccc1 [Example 136]	1.11	> 30
CCCCCCCCN(CCCCn1cnc2c(N)nc3ccccc3c21)C(C)=O [Example 137]	10	> 30
CCOCc1nc2c(N)nc3ccccc3c2n1CCNC(=O)CCCCC1SCC2NC(=O)NC21 (stereo not drawn) [Example 29, N^1-[2-(4-Amino-2-(ethoxymethyl)-1H-imidazo[4,5-c]quinolin-1-yl)ethyl]-5-(2-oxoperhydrothieno[3,4-d]imidazol-4-yl)pentanamide Ditrifluoroacetate]	0.12	> 30
N#CCC(=O)NCCCCn1cnc2c(N)nc3ccccc3c21 [Example 112]	10	> 30
COc1ccc(CN(CCCCn2cnc3c(N)nc4ccccc4c32)C(C)=O)c(OC)c1OC [Example 145]	1.11	> 30
CC(=O)N(CCCCn1cnc2c(N)nc3ccccc3c21)Cc1cccc2ccccc12 [Example 138]	1.11	> 30
CC(=O)CCCC(=O)NCCCCn1cnc2c(N)nc3ccccc3c21 [Example 118]	1.11	> 30
Nc1nc2ccccc2c2c1ncn2CCCCNC(=O)c1cccs1 [Example 86]	1.11	10
CC(=O)N(CCCCn1cnc2c(N)nc3ccccc3c21)Cc1cc(Cl)cc(Cl)c1 [Example 128]	3.33	1.11
CC(=O)N(CCCCn1cnc2c(N)nc3ccccc3c21)Cc1ccncc1 [Example 143]	0.12	> 30
COC(=O)c1ccc(C(=O)NCCCCn2cnc3c(N)nc4ccccc4c32)cc1 [Example 100]	10	3.33
COCCc1nc2c(N)nc3ccccc3c2n1CCCCNC(=O)c1ccc(OC)c(OC)c1 [Example 158]	0.001	1
COc1ccccc1CCNCc1ccc(C(=O)NCCCCn2cnc3c(N)nc4ccccc4c32)cc1 [Example 106]	3.33	> 30
COCCc1nc2c(N)nc3c(c2n1CCCCNC(=O)Cc1ccccc1)CCCC3 [Example 174]	0.001	1
C=CCCCCCCCCC(=O)NCCCCn1cnc2c(N)nc3ccccc3c21 [Example 92]	3.33	> 30

SMILES	minimal effective concentration (interferon (α)) [µM]	minimal effective concentration [1] [µM]
Nc1nc2ccccc2c2c1ncn2CCCCNC(=O)c1cccc(Br)c1 [Example 89]	1.11	10
COC(=O)CCCCC(=O)NCCCCn1cnc2c(N)nc3ccccc3c21 [Example 95]	3.33	30
Nc1nc2ccccc2c2c1ncn2CCCCNC(=O)c1cnc2ccccc2c1 [Example 40, N^3-[4-(4-Amino-1H-imidazo[4,5-c]quinolin-1-yl)butyl]-3-quinolinecarboxamide]	0.37	30
COC(=O)CCCC(=O)NCCCCn1cnc2c(N)nc3ccccc3c21 [Example 117]	3.33	> 30
CCCCOc1ccc(CN(CCCCn2cnc3c(N)nc4ccccc4c32)C(C)=O)cc1 [Example 123]	3.33	> 30
COCCc1nc2c(N)nc3c(c2n1CCCCNC(=O)c1ccccc1)CCCC3 [Example 172]	0.0001	1
CCc1ccc(CN(CCCCn2cnc3c(N)nc4ccccc4c32)C(C)=O)o1 [Example 133]	3.33	> 30
COC(=O)CCCCCCCCC(=O)NCCCCn1cnc2c(N)nc3ccccc3c21 [Example 101]	3.33	> 30
COCCc1nc2c(N)nc3ccccc3c2n1CCCCNC(=O)[C@@H]1C[C@H]1c1ccccc1 [Example 153]	0.0001	0.1
Nc1nc2ccccc2c2c1ncn2CCCCCCCCNC(=O)c1ccccc1 [Example 191, N-[8-(4-amino-1H-imidazo[4,5-c]quinolin-1-yl)octyl]benzamide]	> 30	> 30
COCCc1nc2c(N)nc3ccccc3c2n1CCCCNC(=O)CCCCCCC(=O)OC [Example 159]	0.01	1
Nc1nc2ccccc2c2c1ncn2CCCCNC(=O)c1ccc([N+](=O)[O-])cc1 [Example 87]	3.33	30
COc1ccc(OC)c(CN(CCCCn2cnc3c(N)nc4ccccc4c32)C(C)=O)c1 [Example 130]	1.11	10
CCCCc1nc2c(N)nc3ccccc3c2n1CCCCNC(=O)c1ccccc1 [Example 6, N^1-[4-(4-Amino-2-butyl-1H-imidazo[4,5-c]quinolin-1-yl)butyl]benzamide]	0.12	1.11
Nc1nc2ccccc2c2c1ncn2CCCCNC(=O)c1ccc(CNCc2ccncc2)cc1 [Example 105]	0.12	10
CC(=O)N(CCCCn1cnc2c(N)nc3ccccc3c21)Cc1ccccc1[N+](=O)[O-] [Example 141]	0.37	> 30
COc1ccc(CN(CCCCn2cnc3c(N)nc4ccccc4c32)C(C)=O)cc1 [Example 120]	0.37	> 30
Nc1nc2ccccc2c2c1ncn2CCCCNC(=O)C12CC3CC(CC(C3)C1)C2 [Example 90]	3.33	10
COCCc1nc2c(N)nc3ccccc3c2n1CCCCNC(=O)c1ccc(C(C)(C)C)cc1 [Example 156]	0.001	1
Cc1nc2c(N)nc3ccccc3c2n1CCCCNC(=O)c1ccccc1 [Example 4, N^1-[4-(4-Amino-2-methyl-1H-imidazo[4,5-c]quinolin-1-yl)butyl]benzamide]	0.04	0.37
Nc1nc2ccccc2c2c1ncn2CCCCNC(=O)Cc1cccs1 [Example 108, N^1-(4-(4-Amino-1H-imidazo[4,5-c]quinolin-1-yl)butyl)-2-(2-thienyl)acetamide]	0.12	10
Nc1nc2ccccc2c2c1ncn2CCCCNC(=O)CC(c1ccccc1)c1ccccc1 [Example 109]	> 30	> 30
